Experimental data published in PMC10017709, “Structural basis of selective cannabinoid CB2 receptor activation” (Nature Communications, 2023).
Where “and” joins values, the source holds several entries; their conditions need not be identical. Equal entries are not always repeated. Where two headings read alike, the source gives them in different places.

Assays:
hCB2R = molecular target: T1, hCB2R (Homo sapiens, UniProt P34972); test: [3H]RO6957022 competition association assay; type: binding; conditions: individual replicates
T1 construct: host or cells: CHO-K1 (CHOK1_hCB2bgal, PathHunter), membranes

CB2R WT = CB2R WT (Homo sapiens, UniProt P34972); test: [35S]GTPγS G protein activation assay, CB2R WT; type: biochemical; conditions: for Emax: CB2R WT, read-out: Emax (%); for [35S]GTPγS binding, percentage of CP55,940: individual replicates
CB2R-I110^3.29L = CB2R-I110^3.29L (Homo sapiens, UniProt P34972, I110L); test: [35S]GTPγS assay, CB2R I110L mutant; type: biochemical; conditions: for [35S]GTPγS binding: I1103.29L, individual replicates
CB2R-I110^3.29A = CB2R-I110^3.29A (Homo sapiens, UniProt P34972, I110A); test: [35S]GTPγS assay, CB2R I110A mutant; type: biochemical; conditions: for [35S]GTPγS binding: I1103.29A, individual replicates
CB2R-F117^3.36A = CB2R-F117^3.36A (Homo sapiens, UniProt P34972, F117A); test: [35S]GTPγS assay, CB2R F117A mutant; type: biochemical
CB2R-H95^2.65A = CB2R-H95^2.65A (Homo sapiens, UniProt P34972, H95A); test: [35S]GTPγS assay, CB2R H95A mutant; type: biochemical
CB2R-V261^6.51L = CB2R-V261^6.51L (Homo sapiens, UniProt P34972, V261L); test: [35S]GTPγS assay, CB2R V261L mutant; type: biochemical
Chain of CB2R-V261^6.51L (P34972 whole entry V261L): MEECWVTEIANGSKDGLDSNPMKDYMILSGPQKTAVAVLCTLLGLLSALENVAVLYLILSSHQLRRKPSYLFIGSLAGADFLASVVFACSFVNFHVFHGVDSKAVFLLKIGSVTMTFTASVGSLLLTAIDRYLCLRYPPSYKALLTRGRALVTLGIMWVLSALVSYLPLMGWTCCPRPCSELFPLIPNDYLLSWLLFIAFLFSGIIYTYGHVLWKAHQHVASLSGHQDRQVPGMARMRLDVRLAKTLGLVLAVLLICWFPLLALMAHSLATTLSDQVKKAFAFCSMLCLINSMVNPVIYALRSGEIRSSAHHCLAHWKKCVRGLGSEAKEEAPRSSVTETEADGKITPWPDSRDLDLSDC

Chain of CB2R-I110^3.29A (P34972 whole entry I110A): as the sequence (P34972 whole entry V261L) above, with I110A, L261V counted along it
T1 sequence (P34972 whole entry): as the sequence (P34972 whole entry V261L) above, with L261V counted along it
Chain of CB2R WT (P34972 whole entry): as the sequence (P34972 whole entry V261L) above, with L261V counted along it
Chain of CB2R-F117^3.36A (P34972 whole entry F117A): as the sequence (P34972 whole entry V261L) above, with F117A, L261V counted along it
Chain of CB2R-I110^3.29L (P34972 whole entry I110L): as the sequence (P34972 whole entry V261L) above, with I110L, L261V counted along it
Chain of CB2R-H95^2.65A (P34972 whole entry H95A): as the sequence (P34972 whole entry V261L) above, with H95A, L261V counted along it

`CC(C)(C)[C@@H](CO)NC(=O)c1nn(-c2c[n+]([O-])ccn2)c2c1C[C@@H]1C[C@H]21` [APD371] was tested, and the “percentage specific [3H]RO6957022 binding (competition association)” value (from here on “percentage specific”) (hCB2R; Time 1 min) was -7.10% and 4.75% and 12.65%, the “percentage specific” value (hCB2R; Time 3 min) was 13.92% and 19.07% and 26.36% and the “percentage specific” value (hCB2R; Time 5 min) was 13.96% and 13.94% and 24.44%. The “percentage specific” value (hCB2R; Time 7 min) was 24.14% and 47.87% and 28.29%, the “percentage specific” value (hCB2R; Time 10 min) was 24.18% and 36.84% and 30.72% and the “percentage specific” value (hCB2R; Time 20 min) was 40.15% and 32.14% and 34.58%. The “percentage specific” value (hCB2R; Time 30 min) was 39.61% and 32.25% and 36.63%, the “percentage specific” value (hCB2R; Time 45 min) was 20.89% and 29.77% and 37.77% and the “percentage specific” value (hCB2R; Time 60 min) was 31.24% and 38.79% and 36.98%. The “percentage specific” value (hCB2R; Time 90 min) was 31.73% and 32.90% and 39.73%, the “percentage specific” value (hCB2R; Time 120 min) was 27.67% and 36.63% and 31.55% and the Emax (CB2R WT; maximum effect at 10 µM compared to WT (Suppl. Table 6)) was 109 ± 3%. The Emax (CB2R WT; maximum effect compared to CP55,940) was 134 ± 12%, the “[35S]GTPγS binding, percentage of CP55,940” value (CB2R WT; log [agonist] (M) -5) was 148.28% and 110.29% and 144.01% and the “[35S]GTPγS binding, percentage of CP55,940” value (CB2R WT; log [agonist] (M) -6) was 121.47% and 91.68% and 110.37%. For the same compound, the “[35S]GTPγS binding, percentage of CP55,940” value (CB2R WT; log [agonist] (M) -7) was 71.38% and 61.86% and 107.40%, the “[35S]GTPγS binding, percentage of CP55,940” value (CB2R WT; log [agonist] (M) -8) was 40.70% and 28.22% and 92.24% and the “[35S]GTPγS binding, percentage of CP55,940” value (CB2R WT; log [agonist] (M) -9) was -4.49% and -11.58% and 35.79%. For the same compound, the “[35S]GTPγS binding, percentage of CP55,940” value (CB2R WT; log [agonist] (M) -10) was 14.57% and -14.11% and 7.29%, the Emax (CB2R-I110^3.29L; I110L mutant, at 10 µM compared to WT, read-out: Emax (%)) was 101 ± 7% and the “[35S]GTPγS binding” value (CB2R-I110^3.29L; log [ligand] (M) -5) was 88.75 percentage of WT and 114.10 percentage of WT and 98.70 percentage of WT. The “[35S]GTPγS binding” value (CB2R-I110^3.29L; log [ligand] (M) -6) was 65.58 percentage of WT and 82.80 percentage of WT and 68.20 percentage of WT, the “[35S]GTPγS binding” value (CB2R-I110^3.29L; log [ligand] (M) -7) was 37.92 percentage of WT and 48.30 percentage of WT and 43.20 percentage of WT and the “[35S]GTPγS binding” value (CB2R-I110^3.29L; log [ligand] (M) -8) was 16.04 percentage of WT and -5.10 percentage of WT and 25.10 percentage of WT. The “[35S]GTPγS binding” value (CB2R-I110^3.29L; log [ligand] (M) -9) was 37.59 percentage of WT and -1.70 percentage of WT and -8.60 percentage of WT, the “[35S]GTPγS binding” value (CB2R-I110^3.29L; log [ligand] (M) -10) was -2.00 percentage of WT and -5.20 percentage of WT and the Emax (CB2R-I110^3.29A; I110A mutant, at 10 µM compared to WT, read-out: Emax (%)) was 28 ± 9%. For the same compound, the “[35S]GTPγS binding” value (CB2R-I110^3.29A; log [ligand] (M) -5) was 8.02 percentage of WT and 49.60 percentage of WT and 23.20 percentage of WT and 29.78 percentage of WT, the “[35S]GTPγS binding” value (CB2R-I110^3.29A; log [ligand] (M) -6) was -6.90 percentage of WT and 31.60 percentage of WT and 8.00 percentage of WT and 14.76 percentage of WT and the “[35S]GTPγS binding” value (CB2R-I110^3.29A; log [ligand] (M) -7) was -11.72 percentage of WT and 23.80 percentage of WT and 1.10 percentage of WT and 21.50 percentage of WT. The “[35S]GTPγS binding” value (CB2R-I110^3.29A; log [ligand] (M) -8) was -18.83 percentage of WT and 1.40 percentage of WT and -5.80 percentage of WT and 9.14 percentage of WT, the “[35S]GTPγS binding” value (CB2R-I110^3.29A; log [ligand] (M) -9) was -17.87 percentage of WT and 6.80 percentage of WT and -8.60 percentage of WT and -1.19 percentage of WT and the “[35S]GTPγS binding” value (CB2R-I110^3.29A; log [ligand] (M) -10) was -16.57 percentage of WT and -10.00 percentage of WT and -2.40 percentage of WT and -10.68 percentage of WT. For the same compound, the Emax (CB2R-F117^3.36A; F117A mutant, at 10 µM compared to WT, read-out: Emax (%)) was 2 ± 6%, the “[35S]GTPγS binding” value (CB2R-F117^3.36A; F1173.36A, log [ligand] (M) -5, individual replicates) was -3.66 percentage of WT and 14.36 percentage of WT and -4.64 percentage of WT and the “drop in potency compared to WT” value (CB2R-H95^2.65A; H95A mutant vs WT, [35S]GTPγS) was 158 fold. The Emax (CB2R-H95^2.65A; H95A mutant, at 10 µM compared to WT, read-out: Emax (%)) was 50 ± 1%, the “drop in potency compared to WT” value (CB2R-V261^6.51L; V261L mutant vs WT, [35S]GTPγS) was 10 fold and the Emax (CB2R-V261^6.51L; V261L mutant, at 10 µM compared to WT, read-out: Emax (%)) was 6 ± 2%.
